Results from publication PMC11410943 (Nature Communications, 2024).
≈ marks a conversion by molar mass, not a printed value. Read-outs that look alike come from different tables or passages of the source.

Experiments:
[1] = test system: Citrobacter spp.; assay: MIC
[2] = test system: Proteus spp.; assay: MIC
[3] = test system: Pseudomonas aeruginosa; assay: MIC
[4] = test system: Acinetobacter baumannii; assay: MIC; conditions: IHMA/CARB-X MDR clinical isolates 2019, N=298
[5] = test system: Morganella morganii; assay: MIC; conditions: IHMA/CARB-X MDR clinical isolates 2019, N=42
[6] = test system: Klebsiella pneumoniae; assay: MIC
[7] = test system: Enterobacter cloacae; assay: MIC; conditions: IHMA/CARB-X MDR clinical isolates 2019, N=152
[8] = test system: Escherichia coli; assay: MIC
[9] = biological target: E. coli gyrase (Escherichia coli, UniProt P0AES4); assay: E. coli gyrase supercoiling inhibition; format: biochemical
E. coli gyrase, sequence (P0AES4 whole entry): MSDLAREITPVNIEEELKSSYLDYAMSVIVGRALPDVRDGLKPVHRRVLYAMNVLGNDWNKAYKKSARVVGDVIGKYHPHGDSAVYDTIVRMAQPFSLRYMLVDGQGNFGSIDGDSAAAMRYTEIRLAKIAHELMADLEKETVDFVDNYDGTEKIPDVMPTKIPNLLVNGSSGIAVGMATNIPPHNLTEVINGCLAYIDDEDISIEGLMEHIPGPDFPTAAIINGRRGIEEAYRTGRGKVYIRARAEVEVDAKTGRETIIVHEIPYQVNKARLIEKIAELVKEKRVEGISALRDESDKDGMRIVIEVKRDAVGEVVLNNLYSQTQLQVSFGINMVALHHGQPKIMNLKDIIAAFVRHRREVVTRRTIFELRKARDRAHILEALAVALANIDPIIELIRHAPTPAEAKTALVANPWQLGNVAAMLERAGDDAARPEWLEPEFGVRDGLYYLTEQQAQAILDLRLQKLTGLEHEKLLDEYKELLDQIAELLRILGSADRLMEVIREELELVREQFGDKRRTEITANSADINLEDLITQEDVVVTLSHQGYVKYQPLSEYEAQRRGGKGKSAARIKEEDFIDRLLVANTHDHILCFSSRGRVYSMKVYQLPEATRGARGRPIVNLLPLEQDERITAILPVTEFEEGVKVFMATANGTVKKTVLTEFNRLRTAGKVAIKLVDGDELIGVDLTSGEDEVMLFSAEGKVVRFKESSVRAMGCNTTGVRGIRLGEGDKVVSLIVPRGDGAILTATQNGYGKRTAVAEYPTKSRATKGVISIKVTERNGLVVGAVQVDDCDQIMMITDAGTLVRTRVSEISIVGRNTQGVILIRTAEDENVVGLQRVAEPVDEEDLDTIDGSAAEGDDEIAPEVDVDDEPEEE

[10] = biological target: hERG K+ channel (Homo sapiens, UniProt Q12809); assay: hERG automated patch-clamp; format: cell-based
hERG K+ channel, sequence (Q12809 whole entry): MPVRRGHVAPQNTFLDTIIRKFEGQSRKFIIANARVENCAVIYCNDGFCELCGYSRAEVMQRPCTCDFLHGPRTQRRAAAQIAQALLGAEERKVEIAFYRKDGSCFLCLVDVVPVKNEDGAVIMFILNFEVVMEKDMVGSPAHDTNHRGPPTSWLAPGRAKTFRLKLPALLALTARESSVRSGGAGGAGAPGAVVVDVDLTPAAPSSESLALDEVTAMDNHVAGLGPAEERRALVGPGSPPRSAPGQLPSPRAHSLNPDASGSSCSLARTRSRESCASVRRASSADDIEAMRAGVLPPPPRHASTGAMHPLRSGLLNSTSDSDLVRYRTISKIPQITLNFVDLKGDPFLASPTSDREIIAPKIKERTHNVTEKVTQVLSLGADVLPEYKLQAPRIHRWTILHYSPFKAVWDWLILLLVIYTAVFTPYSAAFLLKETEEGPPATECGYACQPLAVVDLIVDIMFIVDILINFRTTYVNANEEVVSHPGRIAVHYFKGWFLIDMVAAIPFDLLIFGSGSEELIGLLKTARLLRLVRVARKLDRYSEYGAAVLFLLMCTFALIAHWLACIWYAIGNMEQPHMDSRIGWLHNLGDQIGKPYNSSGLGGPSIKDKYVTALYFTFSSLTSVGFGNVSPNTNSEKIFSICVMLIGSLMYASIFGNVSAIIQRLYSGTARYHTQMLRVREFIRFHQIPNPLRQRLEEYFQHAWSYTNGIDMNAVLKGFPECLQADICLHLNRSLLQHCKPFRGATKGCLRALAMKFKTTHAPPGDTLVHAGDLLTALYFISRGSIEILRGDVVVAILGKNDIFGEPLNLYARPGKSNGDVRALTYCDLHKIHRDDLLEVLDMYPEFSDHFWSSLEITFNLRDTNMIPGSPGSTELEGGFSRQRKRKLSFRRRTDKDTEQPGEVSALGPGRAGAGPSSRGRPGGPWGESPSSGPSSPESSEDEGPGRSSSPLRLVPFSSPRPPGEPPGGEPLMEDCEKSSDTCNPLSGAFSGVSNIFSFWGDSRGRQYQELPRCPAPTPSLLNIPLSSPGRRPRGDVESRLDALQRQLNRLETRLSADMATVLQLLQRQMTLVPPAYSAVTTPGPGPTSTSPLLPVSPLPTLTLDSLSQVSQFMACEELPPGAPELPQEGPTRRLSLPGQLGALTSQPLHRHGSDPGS

[11] = test system: Serratia marcescens; assay: MIC; conditions: IHMA/CARB-X MDR clinical isolates 2019, N=45
[12] = test system: Stenotrophomonas maltophilia; assay: MIC; conditions: IHMA/CARB-X MDR clinical isolates 2019, N=150
[13] = IHMA/CARB-X MDR clinical isolates 2019, N=151
[14] = IHMA/CARB-X MDR clinical isolates 2019, N=152
[15] = IHMA/CARB-X MDR clinical isolates 2019, N=300

Compound: NCC[C@H](O)C(=O)N[C@@H]1C[C@H](N)[C@@H](O[C@H]2O[C@H](CN)[C@@H](O)[C@H](O)[C@H]2O)[C@H](O)[C@H]1O[C@H]1O[C@H](CO)[C@@H](O)[C@H](N)[C@H]1O [Amikacin]
- MIC90 ([1]; Citrobacter): 4 µg/mL (≈ 6.83 µM)
- MIC90 [2]: 4 µg/mL (≈ 6.83 µM)
- MIC90 ([3]; Pseudomonas aeruginosa): 64 µg/mL (≈ 109 µM)
- MIC90 ([4]; Acinetobacter baumannii): > 64 µg/mL
- MIC90 ([5]; Morganella morganii): 8 µg/mL (≈ 13.7 µM)
- MIC90 ([6]; Klebsiella pneumoniae): 32 µg/mL (≈ 54.6 µM)
- MIC90 ([7]; Enterobacter cloacae): 4 µg/mL (≈ 6.83 µM)
- MIC90 ([8]; Escherichia coli): 8 µg/mL (≈ 13.7 µM)

Compound: C[C@H]1[C@H](NC(=O)/C(=N\OC(C)(C)C(=O)O)c2csc(N)n2)C(=O)N1S(=O)(=O)O [Aztreonam]
- MIC90 ([1]; Citrobacter): 64 µg/mL (≈ 147 µM)
- MIC90 [2]: 0.5 µg/mL (≈ 1.15 µM)
- MIC90 ([3]; Pseudomonas aeruginosa): > 16 µg/mL
- MIC90 ([5]; Morganella morganii): 16 µg/mL (≈ 36.7 µM)
- MIC90 ([6]; Klebsiella pneumoniae): > 64 µg/mL
- MIC90 ([8]; Escherichia coli): > 64 µg/mL

Compound: CO/N=C(\C(=O)N[C@@H]1C(=O)N2C(C(=O)[O-])=C(C[N+]3(C)CCCC3)CS[C@H]12)c1csc(N)n1 [Cefepime]
- MIC90 ([1]; Citrobacter): > 32 µg/mL
- MIC90 [2]: 16 µg/mL (≈ 33.3 µM)
- MIC90 ([3]; Pseudomonas aeruginosa): > 32 µg/mL
- MIC90 ([4]; Acinetobacter baumannii): > 32 µg/mL
- MIC90 ([5]; Morganella morganii): > 32 µg/mL
- MIC90 ([6]; Klebsiella pneumoniae): > 32 µg/mL
- MIC90 ([8]; Escherichia coli): > 32 µg/mL

Compound: CC(C)(O/N=C(\C(=O)N[C@@H]1C(=O)N2C(C(=O)[O-])=C(C[N+]3(CCNC(=O)c4ccc(O)c(O)c4Cl)CCCC3)CS[C@H]12)c1csc(N)n1)C(=O)O [Cefiderocol]
- MIC90 ([1]; Citrobacter): 2 µg/mL (≈ 2.66 µM)
- MIC90 [2]: 0.5 µg/mL (≈ 0.665 µM)
- MIC90 ([3]; Pseudomonas aeruginosa): 2 µg/mL (≈ 2.66 µM)
- MIC90 ([4]; Acinetobacter baumannii): 4 µg/mL (≈ 5.32 µM)
- MIC90 ([5]; Morganella morganii): 1 µg/mL (≈ 1.33 µM)
- MIC90 ([6]; Klebsiella pneumoniae): 2 µg/mL (≈ 2.66 µM)
- MIC90 ([7]; Enterobacter cloacae): 4 µg/mL (≈ 5.32 µM)
- MIC90 ([8]; Escherichia coli): 2 µg/mL (≈ 2.66 µM)

Compound: COCC1=C(C(=O)O)N2C(=O)[C@@H](NC(=O)/C(=N\OC)c3csc(N)n3)[C@H]2SC1 [Cefpodoxime]
- MIC90 ([1]; Citrobacter): > 32 µg/mL
- MIC90 [2]: > 32 µg/mL
- MIC90 ([5]; Morganella morganii): > 32 µg/mL
- MIC90 ([6]; Klebsiella pneumoniae): > 32 µg/mL
- MIC90 ([7]; Enterobacter cloacae): 64 µg/mL (≈ 150 µM)
- MIC90 ([8]; Escherichia coli): > 32 µg/mL

Compound: CC(C)(O/N=C(\C(=O)N[C@@H]1C(=O)N2C(C(=O)[O-])=C(C[n+]3ccccc3)CS[C@H]12)c1csc(N)n1)C(=O)O [Ceftazidime]
- MIC90 ([1]; Citrobacter): > 64 µg/mL
- MIC90 [2]: 2 µg/mL (≈ 3.66 µM)
- MIC90 ([3]; Pseudomonas aeruginosa): > 32 µg/mL
- MIC90 ([4]; Acinetobacter baumannii): > 32 µg/mL
- MIC90 ([5]; Morganella morganii): 16 µg/mL (≈ 29.3 µM)
- MIC90 ([6]; Klebsiella pneumoniae): > 64 µg/mL
- MIC90 ([7]; Enterobacter cloacae): 128 µg/mL (≈ 234 µM)
- MIC90 ([8]; Escherichia coli): 64 µg/mL (≈ 117 µM)

Compound: CN1C(=O)Cc2ccc(F)c(CNCCCC3CN(c4ccc5c(n4)NC(=O)CO5)C(=O)O3)c21 (centres unmarked) [Compound 2, 6-[5-[3-[[(6-Fluoro-2,3-dihydro-1-methyl-2-oxo-1H-indol-7-yl)methyl]amino]propyl]−2-oxo-3-oxazolidinyl]−2H-pyrido[3,2-b]−1,4-oxazin-3(4H)-one]
- improvement in gyrase supercoiling and topoIV decatenation IC50 over compound 1 [9]: > 100 fold

Compound: Cn1c(=O)ccc2ccc(F)c(CCNC[C@H]3CN(c4ncc5c(n4)NC(=O)CO5)C(=O)O3)c21 [Compound 6, 2-[(5S)−5-[[[2-(7-Fluoro-1,2-dihydro-1-methyl-2-oxo-8-quinolinyl)ethyl]amino]methyl]−2-oxo-3-oxazolidinyl]−6H-pyrimido[5,4-b][1,4]oxazin-7(8H)-one]
- increase in hERG IC50 vs compound 5 [10]: > 10 fold

Compound: Cn1c(=O)cnc2ccc(F)c(CCNC[C@H]3CN(c4cnc5c(n4)NC(=O)CO5)C(=O)O3)c21 [Compound 7, 6-[(5S)−5-[[[2-(6-Fluoro-3,4-dihydro-4-methyl-3-oxo-5-quinoxalinyl)ethyl]amino]methyl]−2-oxo-3-oxazolidinyl]−2H-pyrazino[2,3-b]−1,4-oxazin-3(4H)-one]
- increase in hERG IC50 vs compound 5 [10]: 4 fold

Compound: C[C@H]1c2cccc(O)c2C(=O)C2=C(O)[C@]3(O)C(=O)C(C(N)=O)=C(O)[C@@H](N(C)C)[C@@H]3[C@@H](O)[C@@H]21 [Doxycycline]
- MIC90 ([1]; Citrobacter): 16 µg/mL (≈ 36 µM)
- MIC90 [2]: > 32 µg/mL
- MIC90 ([3]; Pseudomonas aeruginosa): 32 µg/mL (≈ 72 µM)
- MIC90 ([4]; Acinetobacter baumannii): 64 µg/mL (≈ 144 µM)
- MIC90 ([5]; Morganella morganii): 64 µg/mL (≈ 144 µM)
- MIC90 ([6]; Klebsiella pneumoniae): 32 µg/mL (≈ 72 µM)
- MIC90 ([7]; Enterobacter cloacae): 16 µg/mL (≈ 36 µM)
- MIC90 ([8]; Escherichia coli): 32 µg/mL (≈ 72 µM)

Compound: CN(C)[C@@H]1C(O)=C(C(N)=O)C(=O)[C@@]2(O)C(O)=C3C(=O)c4c(O)c(NC(=O)CN5CCCC5)cc(F)c4C[C@H]3C[C@@H]12 [Eravacycline]
- MIC90 ([1]; Citrobacter): 0.5 µg/mL (≈ 0.895 µM)
- MIC90 [2]: 2 µg/mL (≈ 3.58 µM)
- MIC90 ([5]; Morganella morganii): 1 µg/mL (≈ 1.79 µM)
- MIC90 ([6]; Klebsiella pneumoniae): 1 µg/mL (≈ 1.79 µM)
- MIC90 ([8]; Escherichia coli): 0.25 µg/mL (≈ 0.448 µM)

Compound: CNC(C)C1CCC(N)C(OC2C(N)CC(N)C(OC3OCC(C)(O)C(NC)C3O)C2O)O1 (centres unmarked) [Gentamicin]
- MIC90 ([1]; Citrobacter): 8 µg/mL (≈ 16.8 µM)
- MIC90 [2]: 16 µg/mL (≈ 33.5 µM)
- MIC90 ([3]; Pseudomonas aeruginosa): > 32 µg/mL
- MIC90 ([4]; Acinetobacter baumannii): > 32 µg/mL
- MIC90 ([5]; Morganella morganii): 64 µg/mL (≈ 134 µM)
- MIC90 ([6]; Klebsiella pneumoniae): > 32 µg/mL
- MIC90 ([7]; Enterobacter cloacae): 1 µg/mL (≈ 2.09 µM)
- MIC90 ([8]; Escherichia coli): > 32 µg/mL

Compound: C[C@H]1COc2c(N3CCN(C)CC3)c(F)cc3c(=O)c(C(=O)O)cn1c23 [Levofloxacin]
- MIC90 ([1]; Citrobacter): 2 µg/mL (≈ 5.53 µM)
- MIC90 [2]: 8 µg/mL (≈ 22.1 µM)
- MIC90 ([3]; Pseudomonas aeruginosa): 32 µg/mL (≈ 88.6 µM)
- MIC90 ([4]; Acinetobacter baumannii): > 32 µg/mL
- MIC90 ([5]; Morganella morganii): 16 µg/mL (≈ 44.3 µM)
- MIC90 ([6]; Klebsiella pneumoniae): > 32 µg/mL
- MIC90 ([7]; Enterobacter cloacae): 64 µg/mL (≈ 177 µM)
- MIC90 ([8]; Escherichia coli): 16 µg/mL (≈ 44.3 µM)

Compound: C[C@@H](O)[C@H]1C(=O)N2C(C(=O)O)=C(S[C@@H]3CN[C@H](C(=O)N(C)C)C3)[C@H](C)[C@H]12 [Meropenem]
- MIC90 ([1]; Citrobacter): ≤ 0.06 µg/mL
- MIC90 [2]: 0.125 µg/mL (≈ 0.326 µM)
- MIC90 ([3]; Pseudomonas aeruginosa): 32 µg/mL (≈ 83.4 µM)
- MIC90 ([4]; Acinetobacter baumannii): > 64 µg/mL
- MIC90 ([5]; Morganella morganii): 0.125 µg/mL (≈ 0.326 µM)
- MIC90 ([6]; Klebsiella pneumoniae): 32 µg/mL (≈ 83.4 µM)
- MIC90 ([7]; Enterobacter cloacae): 8 µg/mL (≈ 20.9 µM)
- MIC90 ([8]; Escherichia coli): ≤ 0.06 µg/mL

Compound: CN[C@@H]1[C@@H](O)[C@@H](O[C@@H]2[C@@H](O)[C@H](O[C@H]3OC(CNCCO)=CC[C@H]3N)[C@@H](N)C[C@H]2NC(=O)[C@@H](O)CCN)OC[C@]1(C)O [Plazomicin]
- MIC90 ([1]; Citrobacter): 0.5 µg/mL (≈ 0.844 µM)
- MIC90 [2]: 4 µg/mL (≈ 6.75 µM)
- MIC90 ([5]; Morganella morganii): 8 µg/mL (≈ 13.5 µM)
- MIC90 ([6]; Klebsiella pneumoniae): 0.5 µg/mL (≈ 0.844 µM)
- MIC90 ([7]; Enterobacter cloacae): 0.5 µg/mL (≈ 0.844 µM)
- MIC90 ([8]; Escherichia coli): 1 µg/mL (≈ 1.69 µM)

Compound: NC[C@H]1O[C@H](O[C@H]2[C@H](O)[C@@H](O[C@H]3O[C@H](CO)[C@@H](O)[C@H](N)[C@H]3O)[C@H](N)C[C@@H]2N)[C@H](N)C[C@@H]1O [Tobramycin]
- MIC90 ([1]; Citrobacter): 8 µg/mL (≈ 17.1 µM)
- MIC90 [2]: 8 µg/mL (≈ 17.1 µM)
- MIC90 ([3]; Pseudomonas aeruginosa): > 32 µg/mL
- MIC90 ([4]; Acinetobacter baumannii): > 32 µg/mL
- MIC90 ([5]; Morganella morganii): 16 µg/mL (≈ 34.2 µM)
- MIC90 ([6]; Klebsiella pneumoniae): > 32 µg/mL
- MIC90 ([7]; Enterobacter cloacae): 32 µg/mL (≈ 68.4 µM)
- MIC90 ([8]; Escherichia coli): 16 µg/mL (≈ 34.2 µM)

Compound: Aztreonam/Avibactam
- MIC90 [1, 13]: 0.25 µg/mL
- MIC90 [2, 14]: ≤ 0.016 µg/mL
- MIC90 [3, 15]: > 16 µg/mL
- MIC90 [11]: 0.25 µg/mL
- MIC90 [5]: 0.06 µg/mL
- MIC90 [6, 15]: 0.25 µg/mL
- MIC90 [7]: 0.5 µg/mL
- MIC90 [8, 15]: 0.125 µg/mL

Compound: Ceftazidime-Avibactam
- MIC90 [1, 13]: 0.5 µg/mL
- MIC90 [2, 14]: 0.06 µg/mL
- MIC90 [3, 15]: > 16 µg/mL
- MIC90 [11]: 1 µg/mL
- MIC90 [5]: 0.125 µg/mL
- MIC90 [6, 15]: 1 µg/mL
- MIC90 [7]: 2 µg/mL
- MIC90 [8, 15]: 0.25 µg/mL

Compound: Colistin
- MIC90 [12]: > 32 µg/mL
- MIC90 [1, 13]: 0.5 µg/mL
- MIC90 [2, 14]: > 32 µg/mL
- MIC90 [3, 15]: 1 µg/mL
- MIC90 [11]: > 32 µg/mL
- MIC90 [4]: 0.5 µg/mL
- MIC90 [5]: 64 µg/mL
- MIC90 [6, 15]: 0.5 µg/mL
- MIC90 [7]: 2 µg/mL
- MIC90 [8, 15]: 0.25 µg/mL

Compound: Meropenem-vaborbactam
- MIC90 [12]: > 32 µg/mL
- MIC90 [1, 13]: ≤ 0.03 µg/mL
- MIC90 [2, 14]: 0.125 µg/mL
- MIC90 [3, 15]: 32 µg/mL
- MIC90 [11]: 0.125 µg/mL
- MIC90 [4]: > 32 µg/mL
- MIC90 [5]: 0.06 µg/mL
- MIC90 [6, 15]: 16 µg/mL
- MIC90 [7]: 0.25 µg/mL
- MIC90 [8, 15]: ≤ 0.03 µg/mL

Compound: Piperacillin/Tazobactam
- MIC90 [12]: > 128 µg/mL
- MIC90 [3, 15]: 128 µg/mL
- MIC90 [4]: > 128 µg/mL
- MIC90 [7]: 0.06 µg/mL
